# Source: patent US8962574B2 (Boehringer Ingelheim International GmbH, priority 2008, dated 2015)
# Key:
# [1] = tested on: AF patients; details: ACTIVE W, warfarin arm; cited from earlier work
# [2] = tested on: patients with atrial fibrillation at risk of stroke; test: RELY Clinical Trial, dabigatran 110 mg or 150 mg twice daily versus warfarin; format: in vivo
# Description: The primary study outcome was stroke or systemic embolism. The primary safety outcome was major hemorrhage. Secondary outcomes were stroke, systemic embolism and death. […] All other bleeding was considered minor.
# All analyses were based on intention-to-treat.
smiles,measurement,setting,value
"CC(=O)CC(c1ccccc1)c1c(O)c2ccccc2oc1=O (racemic) [warfarin, 3-(α-acetonylbenzyl)4-hydroxycoumarin]",Myocardial Infarction,[1],0.6% (warfarin)
same,Stroke and systemic embolism (per 100 patient years),[1],1.5% (warfarin)
same,ALT or AST >3xULN,[2]; adjusted to INR 2.0 to 3.0,(2.1) %
same,ALT or AST >3xULN with concurrent bilirubin >2xULN,[2]; adjusted to INR 2.0 to 3.0,(0.4) %
same,"ALT or AST >3xULN with concurrent bilirubin >2xULN, number of patients",[2]; adjusted to INR 2.0 to 3.0,22
same,"ALT or AST >3xULN, number of patients",[2]; adjusted to INR 2.0 to 3.0,126
same,Adverse Event Arthralgia,[2]; adjusted to INR 2.0 to 3.0,(5.5) %
same,"Adverse Event Arthralgia, number of patients",[2]; adjusted to INR 2.0 to 3.0,328
same,Adverse Event Atrial fibrillation,[2]; adjusted to INR 2.0 to 3.0,(5.4) %
same,"Adverse Event Atrial fibrillation, number of patients",[2]; adjusted to INR 2.0 to 3.0,326
same,Adverse Event Back pain,[2]; adjusted to INR 2.0 to 3.0,(5.5) %
same,"Adverse Event Back pain, number of patients",[2]; adjusted to INR 2.0 to 3.0,331
same,Adverse Event Chest pain,[2]; adjusted to INR 2.0 to 3.0,(5.7) %
same,"Adverse Event Chest pain, number of patients",[2]; adjusted to INR 2.0 to 3.0,342
same,Adverse Event Cough,[2]; adjusted to INR 2.0 to 3.0,(5.8) %
same,"Adverse Event Cough, number of patients",[2]; adjusted to INR 2.0 to 3.0,345
same,Adverse Event Diarrhea,[2]; adjusted to INR 2.0 to 3.0,(5.5) %
same,"Adverse Event Diarrhea, number of patients",[2]; adjusted to INR 2.0 to 3.0,327
same,Adverse Event Dizziness,[2]; adjusted to INR 2.0 to 3.0,(9.3) %
same,"Adverse Event Dizziness, number of patients",[2]; adjusted to INR 2.0 to 3.0,555
same,Adverse Event Dyspepsia,[2]; adjusted to INR 2.0 to 3.0,(1.4) %
same,"Adverse Event Dyspepsia, number of patients",[2]; adjusted to INR 2.0 to 3.0,83
same,Adverse Event Dyspnoea,[2]; adjusted to INR 2.0 to 3.0,(9.2) %
same,"Adverse Event Dyspnoea, number of patients",[2]; adjusted to INR 2.0 to 3.0,550
same,Adverse Event Fatigue,[2]; adjusted to INR 2.0 to 3.0,(5.9) %
same,"Adverse Event Fatigue, number of patients",[2]; adjusted to INR 2.0 to 3.0,353
same,Adverse Event Nasopharyngitis,[2]; adjusted to INR 2.0 to 3.0,(5.5) %
same,"Adverse Event Nasopharyngitis, number of patients",[2]; adjusted to INR 2.0 to 3.0,327
same,Adverse Event Peripheral edema,[2]; adjusted to INR 2.0 to 3.0,(7.6) %
same,"Adverse Event Peripheral edema, number of patients",[2]; adjusted to INR 2.0 to 3.0,453
same,Adverse Event Upper respiratory tract infection,[2]; adjusted to INR 2.0 to 3.0,(5.0) %
same,"Adverse Event Upper respiratory tract infection, number of patients",[2]; adjusted to INR 2.0 to 3.0,297
same,Adverse Event Urinary tract infection,[2]; adjusted to INR 2.0 to 3.0,(5.3) %
same,"Adverse Event Urinary tract infection, number of patients",[2]; adjusted to INR 2.0 to 3.0,315
same,"Life threatening bleeding, Rate",[2]; adjusted to INR 2.0 to 3.0,1.80 /100 Person Years
same,Mortality rate (death from any cause),[2]; adjusted to INR 2.0 to 3.0,4.13 % per year
same,"Other Major bleeding, Rate",[2]; adjusted to INR 2.0 to 3.0,1.80 /100 Person Years
same,"Pulmonary embolism, Rate",[2]; adjusted to INR 2.0 to 3.0,0.09 /100 Person Years
same,Rate of hemorrhagic stroke,[2]; adjusted to INR 2.0 to 3.0,0.38 % per year
same,Rate of major hemorrhage (major bleeding),[2]; adjusted to INR 2.0 to 3.0,3.46 % per year
same,Rate of myocardial infarction,[2]; adjusted to INR 2.0 to 3.0,0.54 % per year
same,"Rate of net benefit-risk outcome (major vascular events, major bleeding and death)",[2]; adjusted to INR 2.0 to 3.0,7.99 % per year
same,Rate of primary outcome stroke or systemic embolism,[2]; adjusted to INR 2.0 to 3.0,1.70 % per year
same,Reason for discontinuation: Gastrointestinal bleeding,[2]; adjusted to INR 2.0 to 3.0,(0.9) %
same,"Reason for discontinuation: Gastrointestinal disorders (including pain, vomiting and diarrhea)",[2]; adjusted to INR 2.0 to 3.0,(0.8) %
same,Reason for discontinuation: Outcome event,[2]; adjusted to INR 2.0 to 3.0,(2.2) %
same,Reason for discontinuation: Patient decision,[2]; adjusted to INR 2.0 to 3.0,(6.2) %
same,Reason for discontinuation: SAE,[2]; adjusted to INR 2.0 to 3.0,(1.6) %
same,"Reason for discontinuation: SAE, number of patients",[2]; adjusted to INR 2.0 to 3.0,95
same,"Stroke, systemic embolism, pulmonary embolism, myocardial infarction death or major bleed (net benefit), Rate",[2]; adjusted to INR 2.0 to 3.0,7.99 /100 Person Years
same,Study Drug Discontinuation At one year,[2]; adjusted to INR 2.0 to 3.0,10%
same,Study Drug Discontinuation At two years,[2]; adjusted to INR 2.0 to 3.0,(19) %
same,hepatobiliary disorders (AE),[2]; adjusted to INR 2.0 to 3.0,(2.2) %
same,"hepatobiliary disorders (AE), number of patients",[2]; adjusted to INR 2.0 to 3.0,132
same,hepatobiliary disorders (SAE),[2]; adjusted to INR 2.0 to 3.0,(0.4) %
same,"hepatobiliary disorders (SAE), number of patients",[2]; adjusted to INR 2.0 to 3.0,25
same,Rate of discontinuation,"[2]; adjusted to INR 2.0 to 3.0, at 2.5 years",19%
same,Study Drug Discontinuation At one year,"[2]; adjusted to INR 2.0 to 3.0, listed as Warfarin",(10) %
